Assay results as given in a melting point compilation (Tetko et al.; mined from patent text by program, amines drawn as free bases though some values may be those of a salt).

SMILES | melting point
CC(C)c1cc(O)cc2c1C(=O)N(CSc1ccccc1)S2(=O)=O | 127 to 130 °C
CCCCCCCCCCCCCCCCCCOc1ccc(OCCCOc2ccc(OCc3ccccc3)cc2)c(C(=O)O)c1 | 92 to 95 °C
COCC(O)COc1ccc2nc(S(N)(=O)=O)sc2c1 (configuration not stated) | 153 to 155 °C
CC(=O)NC[C@H]1CN(c2ccc3c(c2)CS(=O)(=O)N3C)C(=O)O1 | 84 to 86 °C
O=C(O)c1ccc(C(=O)O)c(O)c1 | > 300 °C
C=Cc1cc(Br)c(OC(C)=O)c(Br)c1 | 76 °C
CN1c2ccccc2Sc2c(C=O)cccc21 | 103 °C
CC(=O)OC(OC(C)=O)c1cc(Br)c(C(OC(C)=O)OC(C)=O)cc1Br | 200 to 210 °C
Nc1nccc(OCc2ccccc2)c1[N+](=O)[O-] | 145 to 147 °C
Brc1ccc(C2NCCS2)cc1 (configuration not stated) | 105 to 107 °C
CCOc1c(C(=O)Nc2ccccc2)csc1Cl | 69 °C
N=C(c1ccc(Cl)cc1)c1cc2ccccc2cn1 | 151 to 152 °C
Cc1ccc2c(CCN)c[nH]c2c1C | 171 to 173 °C
CS(=O)(=O)c1ccc(-n2ncc(C#N)c2-c2ccc(-c3ccco3)cc2)cc1 | 229 to 230 °C
CCCCn1cc(C(=O)C(=O)O)c2cc(-c3cccc(Cl)c3)ccc21 | 108 to 109 °C
c1ccc2c(c1)-c1nccc3ccnc-2c13 | 152 to 153 °C
N#Cc1ccc(OCCCCCOc2cccc(-c3cc4ccc(C#N)cc4o3)c2)cc1 | 138 to 140 °C
Oc1ccc(Oc2ncc(C(F)(F)F)cc2Cl)cc1 | 70 to 72 °C
Cc1cc(C)c(C(=O)O)s1 | 153 to 155 °C
Cc1ccsc1C(Cc1cc(Br)ccc1N)N(C)C (configuration not stated) | 96 to 98 °C
C=CCOCc1ccc([N+](=O)[O-])cc1Nc1nccc(-c2cccnc2)n1 | 213 to 215 °C
CCCCC[C@H]1CC[C@H](c2ccc(NC(=O)OC)cc2)CC1 | 105 to 110 °C

Continued, values first:

melting point | SMILES
151 to 153 °C | CCOCCS(=O)(=O)N1CC[C@@H](C(=O)N(C)Cc2cc(C(F)(F)F)cc(C(F)(F)F)c2)[C@H](c2ccc(F)cc2C)C1 (relative stereo)
162 to 164 °C | Cc1ccc(Cc2cnc(NCCCN)[nH]c2=O)cn1
175 to 176 °C | COC(=O)CC(=O)c1ccc2c(c1)CCC(=O)N2C
58 to 61 °C | COC1=C(OC)C(=O)C(CCC(C)CCC(=O)O)=C(C)C1=O (configuration not stated)
80 °C | CC(C)Cc1cc2c(s1)C(C(=O)O)CC2=O (configuration not stated)
86 to 88 °C | C=CCC(=O)NCC(CO)c1cccc2ccc(OC)cc12 (configuration not stated)
210 to 220 °C | Cc1ccnc(C(=O)c2[nH]c3cc(C(F)(F)F)ccc3c2CC(=O)O)c1
250 to 255 °C | CCOC(=O)c1ncc2[nH]c3ccc(I)cc3c2c1C
156 °C | FC(F)(F)c1cccc(N2CCC(N=Cc3ccccn3)=N2)c1
39 to 42 °C | COCC(=O)COc1c([N+](=O)[O-])ccc(F)c1F
168 °C | COc1ccc(S(=O)(=O)C2(C(=O)NO)CCN(Cc3ccc(-c4ccccc4)cc3)CC2)cc1
110 °C | N#Cc1cccc(C2=Nc3ccc(C#CC4=CC(=O)CCC4)cc3NC(=O)C2)c1
80 to 82.5 °C | CC(C)(C)ON1C(C)(C)CC(OC(=O)c2ccccc2)CC1(C)C
40 °C | C=CCOC(=O)CCc1cc(C(C)(C)C)c(O)c(C(C)(C)C)c1
176 to 177 °C | Cc1noc2cc3c(cc12)C1(CO3)C(=O)N(Cc2cccnc2)c2ccccc21 (configuration not stated)
50 to 52 °C | Cc1cc(F)ccc1C(=O)c1ccc(F)cc1C
190 to 191 °C | Cc1ccc(-c2c(CNC(=O)OC(C)(C)C)c(CC(C)C)nc3ccc(-c4nc(C(=O)OC(C)C)cs4)cc23)cc1
142 to 143 °C | Cc1ccc(C#N)cc1C#N
180 to 183 °C | CC(C)CCc1c(-c2ccc(S(N)(=O)=O)cc2)cnn(-c2ccc(F)cc2)c1=O
228 to 230 °C | COc1cc(N)c(Br)cc1C(=O)NC1CCN(CC2CCN(C(N)=O)CC2)CC1
152 to 153 °C | CCC(=O)NCC1CC1c1c(Cl)ccc2nn(C)cc12 (configuration not stated)
167 to 169 °C | COCCOCc1c(CN(C)CC(O)c2c[nH]c3ccccc23)sc2c(=O)c(C(=O)NCc3ccc(Cl)cc3)cn(C)c12 (configuration not stated)
141 to 144 °C | CC(C)C(NC(=O)OCC1c2ccccc2-c2ccccc21)C(=O)Nc1n[nH]c(=S)s1 (configuration not stated)
176 to 177 °C | CCCSc1ncc(C(=O)N[C@H](Cc2ccccc2)C(=O)O)n1Cc1ccccc1Cl
60 to 62 °C | CC(C)=CCCC(C)CCCC(C)=CC=CC(C)=CC(=O)O (configuration not stated)
195 to 196 °C | O=C(SC[C@@H](SC(=O)c1ccccc1)C(=O)N1CCC[C@H]1C(=O)O)c1ccccc1
197 to 198 °C | Cc1noc(NC(=O)N2CCN(c3nccc(-c4ccc(F)cc4F)n3)CC2)c1C
228 to 230 °C | CC1(C)Oc2ccc(C#N)cc2[C@@H](NC=O)[C@@H]1O (relative stereo)
188 to 191 °C | CCN1C(=O)C(C)(C)C(=O)Nc2ccc(C=O)cc21
147 to 149 °C | CCC(Oc1cccc(C)c1)C(=O)OC1CC(O)C=C2C=CC(C)C(CCC3CC(O)CC(=O)O3)C21 (mixture of isomers)
